Test results as given in patent US11390582B2, “Polymorphs of 1-(4-benzyloxy-benzyl)-3-methyl-thiourea” (Seoul National University R&DB Foundation, priority 2019, dated 2022).

Columns and labels:
Type in all cases: physicochemical
[1] = Stability test under storage condition at room temperature (crystalline form A, up to 6 months); details: for Crystalline form / Purity (%): room temperature storage
Excerpt: Experimental Example 5. Stability Test Under Storage Condition
(§1) From a pharmaceutical point of view, the stability of an active ingredient is very important. It is not preferable pharmaceutically that impurities are excessively produced or the crystalline form is changed under a storage condition.

[2] = Stability test of crystalline forms A and B (25° C./60% RH and 40° C./75% RH, 1 week); details: for Increase of impurities under given conditions: 25° C./60% RH and 40° C./75% RH; for Increase of impurities under given conditions / Change of crystalline form: in words
Excerpt: Experimental Example 4. Stability Test
as §1

[3] = Hygroscopicity test through dynamic vapor sorption (DVS); details: for Hygroscopicity (25° C./80% RH): DVS; for Morphology Change: after DVS hygroscopicity test
Excerpt: Experimental Example 3. Hygroscopicity Test Through Dynamic Vapor Sorption (DVS)
From a pharmaceutical point of view, it is desired to maintain the initial moisture and morphology without absorbing moisture even in a moisture environment.

[4] = storage conditions at room temperature, in words

Increase of impurities under given conditions [2] | Final crystalline form ([2]; 25° C./60% RH, 1 week) | HPLC Purity (area %) ([2]; 25° C./60% RH, 1 week) | Final crystalline form ([2]; 40° C./75% RH, 1 week) | HPLC Purity (area %) ([2]; 40° C./75% RH, 1 week) | HPLC Purity (area %) ([2]; Initial) | Hygroscopicity (25° C./80% RH) [3] [%] | Morphology Change [3] | Compound | other results
impurities were not increased | form A | 99.71 | form A | 99.66 | 99.55 | 0.07 | No | CNC(=S)NCc1ccc(OCc2ccccc2)cc1 [Crystalline form A, 1-(4-benzyloxy-benzyl)-3-methyl-thiourea] | Crystalline form ([1]; 1 month): form A; Purity (%) ([1]; 1 month): 100.0%; Crystalline form ([1]; 3 months): form A; Purity (%) ([1]; 3 months): 100.0%; Crystalline form ([1]; 6 months): form A; Purity (%) ([1]; 6 months): 100.0%; Crystalline form ([1]; Initial): form A; Purity (%) ([1]; Initial): 100.0%; Change of crystalline form [1, 4]: the crystalline form was not changed; Increase of impurities [1, 4]: impurities were not increased; Moisture content compared between forms ([3]; 80% moisture condition, in words): contains less moisture under 80% moisture condition than crystalline form B
impurities were not increased | forms A + B | 99.70 | form A | 99.72 | 99.49 | 0.20 | No | CNC(=S)NCc1ccc(OCc2ccccc2)cc1 [Crystalline form B, 1-(4-benzyloxy-benzyl)-3-methyl-thiourea] | Change of crystalline form ([2]; acceleration condition): all changed into crystalline form A; Change of crystalline form ([2]; storage condition at room temperature): being changed into crystalline form A
